Patent publication US20240034785A1, “RXR-ALPHA BINDERS AND RXR-ALPHA/PLK1 MODULATORS” (NUCMITO PHARMACEUTICALS CO. LTD., priority 2020, published 2024)

Columns and labels:
HeLa cells [1] = assay: Asynchronous or thymidine-synchronized HeLa cells incubated with compound A1; type: cell-based, human
Procedure: Cells were synchronized at GUS boundary by a double thymidine block. Briefly, cells cultured in a medium containing 2 mM thymidine for 16 hr were released into a normal medium for 8 hr, subjected to a second thymidine block for 16 hr, and then released into a fresh medium again. Alternatively, cells were synchronized at prometaphase by a thymidine-nocodazole arrest (an 18-hr thymidine arrest and a 5-hr release, followed by a 5-hr 100 ng/mL nocodazole arrest).

HepG2 xenografts = HepG2 xenografts in nude mice; type: in vivo, mouse
Procedure: FIGS. 69 and 70 show the analysis of nude mice injected with HepG2 cells, where the mice were treated with compound A1 (80 mg/kg) once every two days. The tumor volume was monitored and recorded. Tumors excised at day 14 were shown in FIG. 69 and weight in FIG. 70 (±SEM; **p<0.01).
BALB/c nude mice (7-8 weeks old) were injected subcutaneously with 100 μL HepG2 cells (2×10^6). For treatment, mice were administered with compound A1 (80 mg/kg) diluted in corn oil once every two days. Body weights and tumor sizes were measured every 2 days with tumor volumes (V) calculated by the formula of (width)^2×length/2. The mice were sacrificed after 14 days of treatment and tumors were removed for additional assessments. Isolation and culture of mouse primary liver tumor cells
Livers or transplanted tumor from mouse were fixed in 4% neutral buffered formalin phosphate (pH 7.0) for periods not exceeding 24 hr and were subsequently embedded in paraffin. They were sliced into 4-μm sections for H&E (hematoxylin and eosin) staining, immunofluorescence and for immunohistochemistry. To examine hepatocytes, H&E stained-liver sections were analyzed with an image analysis system. For immunostaining, liver sections or tumor sections were incubated with an anti-γ-tubulin (1:200 dilution), anti-pS10-H3 (1:200 dilution), anti-γ-H2AX (1:200 dilution), or cleaved-caspase-3 (1:100 dilution) antibody. Positive cells or areas were counted and measured, respectively, for at least 10 fields.

cancer cell lines = assay: Western blot analysis of mitotic arrest, apoptosis and SAC activation in cancer cell lines; type: cell-based, human
[2] = system: HepG2 liver cancer and THLE-2 nontumorous liver cells; assay: Western blot analysis of HepG2 and THLE-2 cells; type: cell-based, human; details: 10 μM for 12 hr (FIG. 68)
HepG2 cells = assay: Western blot analysis of liver cancer HepG2 cells; type: cell-based, human; details: indicated concentration for 12 hr (FIG. 61)
B16F10 and 4T1 cells = assay: Mitotic arrest and chromosome misalignment in B16F10 and 4T1 tumor cells; type: cell-based, mouse
[3] = system: primary human hepatocellular carcinoma cells; assay: Western blot analysis of primary hepatic carcinoma cells from a liver cancer patient; type: cell-based; details: 10 μM for 48 hr (FIG. 63)
Procedure: Tissue samples were obtained by surgical resection and processed within 2 hr. Chen et al., Oncotarget 2016, 7, 17047-59. Samples were washed with 1×SC-2 solution, minced with fine sterile scissors and scalpel into fragments of ˜1 mm^3. They were then treated with pre-warmed collagenase type IV for 30 min at 37° C. and filtered through a 70 μm cell strainer. The pellet containing the liver cells was resuspended in ice cold SC-2 solution and triple centrifugation at 1,000 g for 10 min at 4° C. was performed in order to separate the purified hepatocyte population (pellet) from non-parenchymal cells (supernatant). The pellet contained the purified hepatocytes. The resolved single-cell suspensions were then re-suspended in a primary cell culture medium (DMEM, 20% FBS, 2 mM glutamine, 1 mM pyruvate, 10 mM HEPES, 100 units/mL penicillin/streptomycin, 0.1 mg/mL gentamicin, and […] fungizone), plated in 6-well plates coated with 5 μg/cm^2 rat tail collagen type I and maintained in culture at 37° C. and 5% CO2.

[4] = biological target: T1, m-RXRα (p-RXRα) interaction with PLK1 (Homo sapiens, UniProt P19793); assay: Co-immunoprecipitation of Myc-RXRα with FLAG-PLK1 in HeLa cells; details: 10 μM for 3 hr (FIG. 55)
T1 sequence (P19793 1-462): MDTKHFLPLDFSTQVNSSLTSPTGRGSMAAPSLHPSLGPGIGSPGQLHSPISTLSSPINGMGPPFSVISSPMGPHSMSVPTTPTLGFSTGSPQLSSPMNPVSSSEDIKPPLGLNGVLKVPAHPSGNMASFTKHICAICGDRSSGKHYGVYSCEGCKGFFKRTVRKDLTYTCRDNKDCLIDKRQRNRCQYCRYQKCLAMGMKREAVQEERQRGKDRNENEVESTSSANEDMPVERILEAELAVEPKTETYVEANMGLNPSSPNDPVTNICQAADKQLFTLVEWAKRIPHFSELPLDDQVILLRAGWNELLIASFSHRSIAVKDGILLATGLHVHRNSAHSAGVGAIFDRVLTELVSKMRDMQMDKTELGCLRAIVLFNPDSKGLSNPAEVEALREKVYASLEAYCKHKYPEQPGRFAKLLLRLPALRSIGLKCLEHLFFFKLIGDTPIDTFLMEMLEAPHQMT
Procedure: Briefly, cells were harvested in a lysis buffer (10 mM Tris, pH 7.4, 150 mM NaCl, 0.5% NP40, 5 mM ethylene diamine tetraacetic acid, containing protease inhibitors). Cell lysates were incubated with an antibody (1 μg) at 4° C. for 2 hr. Immunocomplexes were then precipitated with 30 μL of protein G-Sepharose beads. After an extensive washing with the lysis buffer, the beads were boiled in a sodium dodecyl sulfate (SDS) sample loading buffer and assessed by western blotting.
Cell lysates were boiled in an SDS sample loading buffer, resolved by 10% SDS-polyacrylamide gel electrophoresis (SDS-PAGE), and transferred to PVDF membranes. The membranes were blocked with 5% milk in a Tris buffered saline and TWEEN 20 (TBST)(10 mM Tris-HCl, pH 8.0, 150 mM NaCl, 0.05% TWEEN 20) for 1 hr at room temperature. After washing twice with TBST, the membranes were incubated with primary antibodies in TBST for 1 hr and then washed twice, probed with a horseradish peroxide-linked anti-immunoglobulin (1:5,000 dilution) for 1 hr at room temperature. After three washes with TBST, immunoreactive products were visualized using enhanced chemiluminescence reagents and autoradiography.

[5] = biological target: T2, p-RXRα and PLK1 at the centrosome (Homo sapiens, UniProt P19793); assay: In situ proximity ligation assay (PLA) in HepG2 cells; type: cell-based; details: RO-3306 10 μM for 30 min or compound A1 10 μM for 2 hr (FIG. 56)
T2 construct: endogenous in cells; host or cells: HepG2
T2 sequence (P19793 1-462): T1 sequence (P19793 1-462)
Procedure: An in situ proximity ligation assay (PLA) was performed in HeLa cells and HepG2 by using a DOULINK™ assay kit. Briefly, cells mounted on glass slides were fixed with methanol at −20° C. for 5 min, then permeabilized with 0.05% Triton X-100 in a PBS buffer for 8 min at 4° C., and blocked with a blocking solution for 60 min at 37° C., followed by incubation with primary antibodies for 60 min at 37° C. The slides were then washed three times with wash buffer A, and PLA labeled secondary antibodies (anti-mouse, minus; anti-rabbit, plus) were added and incubated for 60 min at 37° C. The slides were washed two times with wash buffer A and a ligation solution including a ligase was added for 30 min at 37° C. After ligation, the slides were washed two times with wash buffer A and followed by incubation with an amplification buffer including a polymerase for 100 min at 37° C. After amplification, the slides were washed two times with 1×wash buffer B and one time in 0.01×wash buffer B. Finally, the slides were mounted using a minimal volume of a mounting medium with DAPI and analyzed in a confocal microscope after 15 min.

HeLa cells [6] = assay: MT nucleation activity at the centrosomes in cold-treated, reheated HeLa cells; type: cell-based, human; details: reheated at 37° C., 10 μM (FIG. 59)

SMILES: COc1ccc(CC(=O)N/N=C/c2c(O)ccc3ccccc23)cc1 [Compound A1, (E)-N′-((2-hydroxynaphthalen-1-yl)methylene)-2-(4-methoxyphenyl)acetohydrazide]
- effectiveness in asynchronous versus synchronized cells (HeLa cells [1]; HeLa cells, 10 μM for 24 hr (FIG. 64)): more effective in asynchronous cells (AS) than in synchronized GUS cells
- cell cycle progression and fate of synchronized HeLa cells upon treatment (HeLa cells [1]; synchronized HeLa cells): progressed through S phase normally and arrested in mitotic phase, which was followed by apoptosis
- effects of compound A1 in normal liver tissues (HepG2 xenografts; normal liver tissues of HepG2 xenograft mice (FIG. 71)): not observed in normal liver tissues
- mitotic arrest and DNA damage response in normal tissues (HepG2 xenografts; normal tissues of kidney, intestine, spleen, and heart): no effect
- signs of overt toxicities (HepG2 xenografts; nude mice, 80 mg/kg once every two days, 14 days): without any signs of overt toxicities
- growth of HepG2 tumor (HepG2 xenografts; nude mice, subcutaneous HepG2 xenografts, 80 mg/kg in corn oil once every two days, 14 days (FIGS. 69 and 70)): strongly inhibited the growth of HepG2 tumor
- mitotic arrest, chromosome aberrations, DNA damage response, and caspase 3 activation in tumor cells (HepG2 xenografts; tumor specimens from HepG2 xenograft (FIG. 71)): induction of mitotic arrest, chromosome aberrations, DNA damage response, and caspase 3 activation in tumor cells
- apoptosis of cancer cells (cancer cell lines): induced apoptosis of cancer cells in a dose-dependent and RXRα-dependent manner
- activation of the spindle assembly checkpoint (SAC), mobility-shifted BubR1 (cancer cell lines; FIGS. 61, 62 and 68): accompanied with the activation of the spindle assembly checkpoint (SAC)
- nuclear morphology (mitotic catastrophe) (cancer cell lines; cancer cells treated with compound A1): exhibited multi-lobular, giant nuclear and/or highly fragmented/bursted nuclei
- induction of mitotic arrest and apoptosis (cancer cell lines; various cancer cell lines (HepG2, Bel-7402, SK-Hep-1), 12 hr (FIGS. 61 and 62)): observed
- inducing G2/M arrest, SAC activation, and apoptosis in HepG2 versus THLE-2 cells [2]: differential effects
- effect in p-RXRα-positive HepG2 liver cancer cells (HepG2 cells): potent effect
- chromosomal aberrations (chromosome misalignment) (B16F10 and 4T1 cells; 10 μM for 2 hr (FIG. 67)): chromosomal aberrations
- mitotic arrest (B16F10 and 4T1 cells; 10 μM for 6 hr (FIG. 66)): caused mitotic arrest
- induction of mitotic arrest and apoptosis [3]: observed
- p-RXRα interaction with PLK1 (CoIP) [4]: inhibited
- in situ interaction between p-RXRα and PLK1 at the centrosome (PLA) [5]: inhibited the in situ interaction
- α-tubulin nucleation (MT nucleation activity at the centrosomes) (HeLa cells [6]): inhibited α-tubulin nucleation
